From ChEMBL document CHEMBL1201862, “PubChem BioAssay data set” (2004)
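A five-concentration, 48-hour dose response in 96-well plates underlies each endpoint, interpolated linearly between surrounding concentrations. Abbreviation: GI50, concentration required for 50% inhibition of growth.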 Active and inactive are the calls of the source. Cut-off read from the data, not from the text of the source: active = GI50 up to about 1.1 µM and inactive = higher.

Tests used:
Assay in all cases: NCI tumour cell line growth inhibition, 48 h
UACC-257 = tested on: UACC-257
A498 = tested on: A498
RXF 631 = tested on: RXF 631
RPMI-8226 = tested on: RPMI-8226
MOLT-4 = tested on: MOLT-4
Malme-3M = tested on: Malme-3M
HL-60 = tested on: HL-60
OVCAR-3 = tested on: OVCAR-3
DMS-273 = tested on: DMS-273
SNB-78 = tested on: SNB-78
HT-29 = tested on: HT-29
M19-MEL = tested on: M19-MEL
K562 = tested on: K562
XF498 = tested on: XF498
SF-539 = tested on: SF-539
OVCAR-4 = tested on: OVCAR-4
NCI-H226 = tested on: NCI-H226
LOX IMVI = tested on: LOX IMVI
U-251 = tested on: U-251
IGROV-1 = tested on: IGROV-1
UO-31 = tested on: UO-31
HOP-18 = tested on: HOP-18
SK-MEL-28 = tested on: SK-MEL-28
HCT-116 = tested on: HCT-116
KM-20L2 = tested on: KM-20L2
SK-MEL-2 = tested on: SK-MEL-2
DMS-114 = tested on: DMS-114
LXFL 529 = tested on: LXFL 529
KM12 = tested on: KM12
SK-OV-3 = tested on: SK-OV-3
HCC 2998 = tested on: HCC 2998
RXF 393 = tested on: RXF 393
HOP-92 = tested on: HOP-92
OVCAR-5 = tested on: OVCAR-5
786-0 = tested on: 786-0
SF-295 = tested on: SF-295
NCI-H522 = tested on: NCI-H522
HOP-62 = tested on: HOP-62
NCI-H460 = tested on: NCI-H460
HCT-15 = tested on: HCT-15
M14 = tested on: M14
CAKI-1 = tested on: CAKI-1
OVCAR-8 = tested on: OVCAR-8
SNB-19 = tested on: SNB-19
SN12C = tested on: SN12C
SNB-75 = tested on: SNB-75
DLD-1 = tested on: DLD-1
SW-620 = tested on: SW-620
ACHN = tested on: ACHN
SK-MEL-5 = tested on: SK-MEL-5
TK-10 = tested on: TK-10
CCRF-CEM = tested on: CCRF-CEM
UACC-62 = tested on: UACC-62
COLO 205 = tested on: COLO 205
A549 = tested on: A549
EKVX = tested on: EKVX
NCI-H23 = tested on: NCI-H23
SF-268 = tested on: SF-268
SR = tested on: SR

CC(=O)OCC1OC(n2c(=O)n(-c3ccccc3)c(=O)c3cc(Br)cc(Br)c32)C(OC(C)=O)C(OC(C)=O)C1OC(C)=O (configuration not stated)
GI50 (UACC-257): > 100 µM (inactive) | GI50 (A498): > 100 µM (inactive) | GI50 (RXF 631): > 100 µM (inactive) | GI50 (RPMI-8226): > 100 µM (inactive) | GI50 (MOLT-4): > 100 µM (inactive) | GI50 (Malme-3M): > 100 µM (inactive) | GI50 (HL-60): > 100 µM (inactive) | GI50 (OVCAR-3): > 100 µM (inactive) | GI50 (DMS-273): > 100 µM (inactive) | GI50 (SNB-78): > 100 µM (inactive) | GI50 (HT-29): > 100 µM (inactive) | GI50 (M19-MEL): > 100 µM (inactive) | GI50 (K562): > 100 µM (inactive) | GI50 (XF498): > 100 µM (inactive) | GI50 (SF-539): > 100 µM (inactive) | GI50 (OVCAR-4): 7.5 µM (inactive) | GI50 (NCI-H226): > 100 µM (inactive) | GI50 (LOX IMVI): > 100 µM (inactive) | GI50 (U-251): 71 µM (inactive) | GI50 (IGROV-1): > 100 µM (inactive) | GI50 (UO-31): > 100 µM (inactive) | GI50 (HOP-18): > 100 µM (inactive) | GI50 (SK-MEL-28): > 100 µM (inactive) | GI50 (HCT-116): > 100 µM (inactive) | GI50 (KM-20L2): 8.95 µM (inactive) | GI50 (SK-MEL-2): > 100 µM (inactive) | GI50 (DMS-114): > 100 µM (inactive) | GI50 (LXFL 529): > 100 µM (inactive) | GI50 (KM12): > 100 µM (inactive) | GI50 (SK-OV-3): > 100 µM (inactive) | GI50 (HCC 2998): > 100 µM (inactive) | GI50 (RXF 393): 48.1 µM (inactive) | GI50 (HOP-92): > 100 µM (inactive) | GI50 (OVCAR-5): > 100 µM (inactive) | GI50 (786-0): > 100 µM (inactive) | GI50 (SF-295): 12 µM (inactive) | GI50 (NCI-H522): > 100 µM (inactive) | GI50 (HOP-62): 88.7 µM (inactive) | GI50 (NCI-H460): > 100 µM (inactive) | GI50 (HCT-15): > 100 µM | GI50 (M14): > 100 µM (inactive) | GI50 (CAKI-1): 2.56 µM (inactive) | GI50 (OVCAR-8): > 100 µM (inactive) | GI50 (SNB-19): > 100 µM (inactive) | GI50 (SN12C): > 100 µM (inactive) | GI50 (SNB-75): 74.1 µM (inactive) | GI50 (DLD-1): > 100 µM (inactive) | GI50 (SW-620): > 100 µM (inactive) | GI50 (ACHN): > 100 µM (inactive) | GI50 (SK-MEL-5): > 100 µM (inactive) | GI50 (TK-10): > 100 µM (inactive) | GI50 (CCRF-CEM): > 100 µM (inactive) | GI50 (UACC-62): > 100 µM (inactive) | GI50 (COLO 205): > 100 µM (inactive) | GI50 (A549): > 100 µM (inactive) | GI50 (EKVX): > 100 µM (inactive) | GI50 (NCI-H23): > 100 µM (inactive) | GI50 (SF-268): > 100 µM (inactive)

Brc1ccc2c(C3CN[C@@H](c4c[nH]c5cc(Br)ccc45)CN3)c[nH]c2c1 (some centres not stated)
GI50 (UACC-257): 11.1 µM (inactive) | GI50 (A498): 1.79 µM (inactive) | GI50 (RXF 631): 2.67 µM (inactive) | GI50 (RPMI-8226): 1.89 µM (inactive) | GI50 (MOLT-4): 1.44 µM (inactive) | GI50 (Malme-3M): 12.2 µM (inactive) | GI50 (HL-60): 2.42 µM (inactive) | GI50 (OVCAR-3): 6.03 µM (inactive) | GI50 (DMS-273): 2.26 µM (inactive) | GI50 (SR): 0.968 µM (active) | GI50 (SNB-78): 10.4 µM (inactive) | GI50 (HT-29): 2.79 µM (inactive) | GI50 (M19-MEL): 6.78 µM (inactive) | GI50 (K562): 1.65 µM (inactive) | GI50 (XF498): 6.84 µM (inactive) | GI50 (SF-539): 3.99 µM (inactive) | GI50 (OVCAR-4): 3.31 µM (inactive) | GI50 (NCI-H226): 2.13 µM (inactive) | GI50 (LOX IMVI): 2.61 µM (inactive) | GI50 (U-251): 5.37 µM (inactive) | GI50 (IGROV-1): 5.65 µM (inactive) | GI50 (UO-31): 5.68 µM (inactive) | GI50 (HOP-18): 11.9 µM (inactive) | GI50 (SK-MEL-28): 11.3 µM (inactive) | GI50 (HCT-116): 1.69 µM (inactive) | GI50 (KM-20L2): 1.98 µM (inactive) | GI50 (SK-MEL-2): 3.02 µM (inactive) | GI50 (DMS-114): 1.95 µM (inactive) | GI50 (LXFL 529): 2.13 µM (inactive) | GI50 (KM12): 1.72 µM (inactive) | GI50 (SK-OV-3): 6.14 µM (inactive) | GI50 (HCC 2998): 2 µM (inactive) | GI50 (RXF 393): 1.55 µM (inactive) | GI50 (HOP-92): 1.66 µM (inactive) | GI50 (OVCAR-5): 2.48 µM (inactive) | GI50 (786-0): 2.89 µM (inactive) | GI50 (SF-295): 3.4 µM (inactive) | GI50 (NCI-H522): 2.54 µM (inactive) | GI50 (HOP-62): 3.94 µM (inactive) | GI50 (NCI-H460): 1.3 µM (inactive) | GI50 (HCT-15): 3.61 µM | GI50 (M14): 2.55 µM (inactive) | GI50 (CAKI-1): 10.4 µM (inactive) | GI50 (OVCAR-8): 4.23 µM (inactive) | GI50 (SNB-19): 9.46 µM (inactive) | GI50 (SN12C): 5.25 µM (inactive) | GI50 (SNB-75): 16.1 µM (inactive) | GI50 (DLD-1): 3.03 µM (inactive) | GI50 (SW-620): 2.48 µM (inactive) | GI50 (ACHN): 3.46 µM (inactive) | GI50 (SK-MEL-5): 3.67 µM (inactive) | GI50 (TK-10): 8.04 µM (inactive) | GI50 (CCRF-CEM): 2.65 µM (inactive) | GI50 (UACC-62): 4.37 µM (inactive) | GI50 (COLO 205): 1.9 µM (inactive) | GI50 (A549): 2.8 µM (inactive) | GI50 (EKVX): 8.97 µM (inactive) | GI50 (NCI-H23): 2.34 µM (inactive) | GI50 (SF-268): 4.78 µM (inactive)
